Where two headings read alike, the source gives them in different places.
What was measured:
[1] = system: MOLM14 cells; experiment: Proliferation assay, spheroid-like growth, MOLM14 (MLL-AF9 rearranged); assay type: cell-based, human; conditions: 8 days, confluence as measure of spheroid size, read-out: spheroid assay_OneTime MOLM14 IC50
Procedure, shortened: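 IC50 derived from a variable-slope dose-response fit of percent confluence change, with DMSO-treated cells as high control and high-dose reference compound as low control. Spheroid-like growth of MOLM14 (200 cells/well) or KO-52 (300 cells/well) in ultra-low attachment plates, 8 days, 37° C, 5% CO2, DMSO normalised to 0.3%, imaged at day 8.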

[2] = molecular target: T1, menin/MLL (terbium chelate-labeled menin, FITC-MBM1 peptide) (Homo sapiens, UniProt O00255, T541A); experiment: Menin/MLL homogenous time-resolved fluorescence (HTRF) assay; assay type: binding; conditions: 30 min incubation
T1 construct: Menin (a.a 1-610-6xhis tag)
T1 sequence (O00255 with tags, fused parts or gaps T541A): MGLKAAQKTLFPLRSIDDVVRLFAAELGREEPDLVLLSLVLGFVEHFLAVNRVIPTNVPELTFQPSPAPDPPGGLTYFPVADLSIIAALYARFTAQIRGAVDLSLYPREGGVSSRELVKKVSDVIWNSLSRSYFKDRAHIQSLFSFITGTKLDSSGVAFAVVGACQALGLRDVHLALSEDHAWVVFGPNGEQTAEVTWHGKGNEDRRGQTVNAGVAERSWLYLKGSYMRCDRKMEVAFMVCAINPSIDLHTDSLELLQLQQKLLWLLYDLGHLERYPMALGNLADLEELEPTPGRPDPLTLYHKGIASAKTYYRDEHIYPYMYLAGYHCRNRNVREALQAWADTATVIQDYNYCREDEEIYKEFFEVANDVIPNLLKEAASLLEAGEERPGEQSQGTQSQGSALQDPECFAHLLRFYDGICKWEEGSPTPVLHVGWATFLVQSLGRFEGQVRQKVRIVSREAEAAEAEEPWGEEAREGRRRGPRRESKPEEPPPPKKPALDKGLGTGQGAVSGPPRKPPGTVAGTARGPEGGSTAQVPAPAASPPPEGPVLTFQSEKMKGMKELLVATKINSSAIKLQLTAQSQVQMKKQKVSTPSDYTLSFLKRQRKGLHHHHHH
Procedure, shortened: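 Compounds were preincubated 30 min at ambient temperature with 200 pM terbium-labeled menin (aa 1-610, His-tagged) in Tris pH 7.5 buffer with DTT and Pluronic, then 75 nM FITC-MBM1 peptide added for 15 min. HTRF ratio 520/490 nm gave % inhibition; IC50 from four-parameter fit, floor 0.1 nM.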

[3] = system: KO-52 cells; experiment: Proliferation assay, spheroid-like growth, KO-52 (MLL wildtype control cell line); assay type: cell-based, human; conditions: Homo sapiens, 192 h, KO-52 control cells, 8 days, confluence as measure of spheroid size; read-out: spheroid assay_OneTime KO-52 IC50
Experimental: The anti-proliferative effect of menin/MLL protein/protein interaction inhibitor test compounds was assessed in human leukemia cell lines. The cell line MOLM14 harbors a MLL translocation and expresses the MLL fusion proteins MLL-AF9, respectively, as well as the wildtype protein from the second allele. […] KO-52 was used as a control cell line containing two MLL (KMT2A) wildtype alleles in order to exclude compounds that display general cytotoxic effects.
MOLM14 cells were cultured in RPMI-1640 (Sigma Aldrich) supplemented with 10% heat-inactivated fetal bovine serum (HyClone), 2 mM L-glutamine (Sigma Aldrich) and 50 μg/ml gentamycin (Gibco). KO-52 cell lines were propagated in alpha-MEM (Sigma Aldrich) supplemented with 20% heat-inactivated fetal bovine serum (HyClone), 2 mM L-glutamine (Sigma Aldrich) and 50 μg/ml gentamycin (Gibco).
In order to assess the anti-proliferative effects, 200 MOLM14 cells, or 300 KO-52 cells were seeded in 200 μl media per well in 96-well round bottom, ultra-low attachment plates (Costar, catalogue number 7007). Cell seeding numbers were chosen based on growth curves to ensure linear growth throughout the experiment. Test compounds were added at different concentrations and the DMSO content was normalized to 0.3%. Cells were incubated for 8 days at 37° C. and 5% CO2. Spheroid like growth was measured in real-time by live-cell imaging (IncuCyteZOOM, Essenbio, 4× objective) acquiring images at day 8. Confluence (%) as a measure of spheroid size was determined using an integrated analysis tool.
In order to determine the effect of the test compounds over time, the confluence in each well as a measure of spheroid size, was calculated. Confluence of the highest dose of a reference compound was used as baseline for the LC (Low control) and the confluence of DMSO treated cells was used as 0% cytotoxicity (High Control, HC).
Absolute IC50 values were calculated as percent change in confluence as follows:
LC=Low Control: cells treated with e.g. 1 μM of the cytotoxic agent staurosporin, or e.g. cells treated with a high concentration of an alternative reference compound
GraphPad Prism (version 7.00) was used to calculate the IC50. Dose-response equation was used for the plot of % Effect vs Log 10 compound concentration with a variable slope and fixing the maximum to 100% and the minimum to 0%.

| Compound | IC50 ([1]; Homo sapiens, MOLM-14, 192 h) [nM] | IC50 [2] [nM] | IC50 [1] [nM] | IC50 [3] [µM] |
| --- | --- | --- | --- | --- |
| CC(C)[C@H]([C@H]1C[C@H](N2CCCCC2)C1)N1CC2(CCN(c3ncnnc3Oc3ccc(F)cc3-c3cncnc3C3CC3)C2)C1 (single isomer, unassigned) [Compound 49] | 27 | 0.6 | – | 2.13 |
| CC(C)[C@H]([C@H]1C[C@H](N2CC(O)C3(CC3)C2)C1)N1CC2(CCN(c3ncnnc3Oc3ccc(F)cc3-c3cncnc3C3CC3)C2)C1 (mixture of isomers) [Compound 43] | 42 | 0.1 | – | 9.96 |
| CC(=O)N1CC2CN([C@H]3C[C@@H]([C@H](C(C)C)N4CC5(CCN(c6ncnnc6Oc6ccc(F)cc6-c6cnc(C)nc6C6CC6)C5)C4)C3)CC2C1 (some centres unmarked) [Compound 377] | – | 0.137 | 2.7 | 4.84 |
| CC(C)C([C@H]1C[C@H](N2C[C@H]3COC[C@H]3C2)C1)N1CC2(CCN(c3ncnnc3Oc3ccc(F)cc3-c3cncc(C#N)c3C3CC3)C2)C1 (some centres unmarked) [Compound 143] | 27 | 0.1 | – | 1.53 |
| CC(=O)N1CCN([C@H]2C[C@@H]([C@@H](C(C)C)N3CC4(CCN(c5ncnnc5Oc5ccc(F)cc5-c5ncc(C#N)cc5C5CC5)C4)C3)C2)CC1 (single isomer, unassigned) [Compound 79] | 240 | 0.3 | – | 3.66 |
| CC(C)[C@H]([C@H]1C[C@@H](NC(=O)C2CC2)C1)N1CC2(CCN(c3ncnnc3Oc3ccc(F)cc3-c3cccc(=O)n3C3CC3)C2)C1 (single isomer, unassigned) [Compound 190] | 76 | – | – | 14.8 |
| CC(C)C([C@H]1C[C@@H](N2C[C@H]3COC[C@H]3C2)C1)N1CC2(CCN(c3ncnnc3Oc3ccc(F)cc3-c3cnc(C#N)nc3C3CC3)C2)C1 (some centres unmarked) [Compound 166] | 3 | – | – | 1.53 |
| CC(C)[C@H]([C@H]1C[C@@H](N2CC[C@](C)(O)C2)C1)N1CC2(CCN(c3ncnnc3Oc3ccc(F)cc3-c3cncnc3C3CC3)C2)C1 [Compound 12] | 2 | – | – | > 15 |
| CC(C)C([C@H]1C[C@H](N2CCC(C)(O)CC2)C1)N1CC2(CCN(c3ncnnc3Oc3ccc(F)cc3-c3cncnc3C3CC3)C2)C1 (some centres unmarked) [Compound 130] | 120 | – | – | > 15 |
| Fc1ccc(Oc2nncnc2N2CCC3(C2)CN(C(C2CCN(CC4COC4)CC2)C24CC(C2)C4)C3)c(-c2nnccc2C2CC2)c1 (centres unmarked) [Compound 340] | 170 | – | – | 11.4 |
| CC(C)[C@@H]([C@H]1C[C@@H](NC(=O)C2CC2)C1)N1CC2(CCN(c3ncnnc3Oc3ccc(F)cc3-c3cccc(=O)n3C3CC3)C2)C1 (single isomer, unassigned) [Compound 191] | > 940 | – | – | > 15 |
| CC(C)[C@H]([C@H]1C[C@H](N2CCC(C)(C(=O)N(C)C)CC2)C1)N1CC2(CCN(c3ncnnc3Oc3ccc(F)cc3-c3cncnc3C3CC3)C2)C1 (single isomer, unassigned) [Compound 63] | 57 | – | – | > 15 |
| CC(C)C([C@H]1C[C@H](N2CC3(COC3)C2)C1)N1CC2(CCN(c3ncnnc3Oc3ccc(F)cc3-c3ncc(C#N)cc3C3CC3)C2)C1 (some centres unmarked) [Compound 141] | 260 | – | – | 12.4 |
| CC(C)C([C@H]1C[C@H](NCC(C)(C)O)C1)N1CC2(CCN(c3ncnnc3Oc3ccc(F)cc3-c3cncnc3C3CC3)C2)C1 (some centres unmarked) [Compound 134] | 130 | – | – | 13.2 |
| CC(=O)N1CC2(C1)CN([C@H]1C[C@H]([C@H](C(C)C)N3CC4(CCN(c5ncnnc5Oc5ccc(F)cc5-c5cnc(C)cc5C5CC5)C4)C3)C1)C2 (single isomer, unassigned) [Compound 372] | 18 | 0.2 | – | – |
| Cc1ncc(-c2cc(F)ccc2Oc2nncnc2N2CCC3(C2)CN([C@@H](C(C)C)[C@H]2C[C@@H](N4CCC5(COC5)C4)C2)C3)c(C2CC2)n1 [Compound 382] | 7 | 0.08 | – | – |
| Cc1ncc(-c2cc(F)ccc2Oc2nncnc2N2CCC3(C2)CN([C@@H](C(C)C)[C@H]2C[C@@H](N4CCC5(CN(C(=O)C6CC6)C5)C4)C2)C3)c(C2CC2)n1 [Compound 380] | 3.7 | 0.16 | – | – |

Continued, in another order:

| IC50 ([1]; Homo sapiens, MOLM-14, 192 h) [nM] | IC50 [2] [nM] | IC50 [1] [nM] | Compound | IC50 [3] [µM] |
| --- | --- | --- | --- | --- |
| 2 | 0.15 | – | CC(C)[C@H]([C@H]1C[C@@H](Nc2cc3nccn3cn2)C1)N1CC2(CCN(c3ncnnc3Oc3ccc(F)cc3-c3cncnc3C3CC3)C2)C1 (single isomer, unassigned) [Compound 433] | – |
| 200 | 0.92 | – | CO[C@H]1CCN(C2CC(C(C(C)C)N3CC4(CCN(c5ncnnc5Oc5ccc(F)cc5-c5nnc(C)cc5C5CC5)C4)C3)C2)C1 (single isomer, unassigned) [Compound 399] | – |
| 0.7 | 0.085 | – | Cc1ncc(-c2cc(F)ccc2Oc2nncnc2N2CCC3(C2)CN([C@@H](C(C)C)[C@H]2C[C@@H](N4CC[C@H](C(=O)NC5CC5)C4)C2)C3)c(C2CC2)n1 [Compound 384] | – |
| 21 | 0.1 | – | CC(=O)Nc1cc(N[C@H]2C[C@@H](C(C(C)C)N3CC4(CCN(c5ncnnc5Oc5ccc(F)cc5-c5cncnc5C5CC5)C4)C3)C2)cnn1 (single isomer, unassigned) [Compound 414] | – |
| < 1.8 | 0.027 | – | CC(=O)N[C@H]1CCN([C@H]2C[C@@H]([C@H](C(C)C)N3CC4(CCN(c5ncnnc5Oc5ccc(F)cc5-c5cnc(C)nc5C5CC5)C4)C3)C2)C1 [Compound 388] | – |
| 29 | 0.082 | – | CC(C)[C@H]([C@H]1C[C@@H](Nc2ccnc(N)n2)C1)N1CC2(CCN(c3ncnnc3Oc3ccc(F)cc3-c3cncnc3C3CC3)C2)C1 (single isomer, unassigned) [Compound 463] | – |
| 15 | 0.18 | – | CCOC(=O)c1nnc(N[C@H]2C[C@@H](C(C(C)C)N3CC4(CCN(c5ncnnc5Oc5ccc(F)cc5-c5cncnc5C5CC5)C4)C3)C2)s1 (single isomer, unassigned) [Compound 482] | – |
| 4 | 0.21 | – | CNC(=O)c1nnc(N[C@H]2C[C@@H]([C@@H](C(C)C)N3CC4(CCN(c5ncnnc5Oc5ccc(F)cc5-c5cncnc5C5CC5)C4)C3)C2)s1 (single isomer, unassigned) [Compound 442] | – |
| 6 | 0.03 | – | CC(C)C([C@H]1C[C@@H](Nc2cccc(CN(C)C)n2)C1)N1CC2(CCN(c3ncnnc3Oc3ccc(F)cc3-c3cncnc3C3CC3)C2)C1 (single isomer, unassigned) [Compound 425] | – |
| 230 | 0.59 | – | CO[C@H]1[C@@H]2CN([C@H]3C[C@H]([C@H](C(C)C)N4CC5(CCN(c6ncnnc6Oc6ccc(F)cc6-c6nnc(C)cc6C6CC6)C5)C4)C3)C[C@@H]21 [Compound 403] | – |
